Measured values as given in ChEMBL document CHEMBL5260810, “Inhibition of bromodomain-containing protein 9 for the prevention of epigenetically-defined drug resistance” (Bioorg Med Chem Lett, 2017).

Assays:
[1] = Cytotoxicity against human OUMS-23 cells measured after 8 days; type: functional, cell-based; details: OUMS-23, 192 h
[2] = Cytotoxicity against human Ci-1 cells measured after 8 days; type: functional, cell-based; details: Ci-1, 192 h
MFM-223 = assay: Cytotoxicity against human MFM-223 cells measured after 8 days; type: functional, cell-based; details: MFM-223, 192 h
[3] = Cytotoxicity against human MOR cells measured after 8 days; type: functional, cell-based; details: 192 h
NCI-H647 = assay: Cytotoxicity against human NCI-H647 cells measured after 8 days; type: functional, cell-based; details: NCI-H647, 192 h
[4] = Cytotoxicity against human NCI-H1869 cells measured after 8 days; type: functional, cell-based; details: NCI-H1869, 192 h
SK-MEL-28 = assay: Cytotoxicity against human SK-MEL-28 cells measured after 8 days; type: functional, cell-based; details: SK-MEL-28, 192 h
[5] = target: L-type calcium channel, verapamil binding site (Rattus norvegicus, UniProt P22002+P27732+Q02485); assay: Displacement of [3H]D 888 from rat brain L-type calcium channel verapamil binding site at 10 uM after 120 mins by scintillation counting analysis relative to control; details: rat brain L-type calcium channel preparation, probe [3H]D 888, read-out: Activity
MHH-PREB-1 = assay: Cytotoxicity against human MHH-PREB-1 cells measured after 8 days; type: functional, cell-based; details: MHH-PREB-1, 192 h
[6] = target: Transcription initiation factor TFIID subunit 1 (Homo sapiens, UniProt P21675); assay: Displacement of biotinylated small-molecule ligand from recombinant His-tagged TAF1 bromodomain 2 (unknown origin) measured after 10 mins by TR-FRET assay
[7] = target: Bromodomain-containing protein 2 (Homo sapiens, UniProt P25440); assay: Binding affinity to human partial length BRD2 bromodomain 2 isoform 1 (E348 to D455 residues) expressed in bacterial expression system by BROMOscan assay
MC116 = assay: Cytotoxicity against human MC116 cells measured after 8 days; type: functional, cell-based; details: MC116, 192 h
NCI-H441 = assay: Cytotoxicity against human NCI-H441 cells measured after 8 days; type: functional, cell-based; details: NCI-H441, 192 h
[8] = target: Serine/threonine-protein kinase pim-1 (Homo sapiens) (UniProt P11309); assay: Inhibition of PIM1 (unknown origin) at 1 uM relative to control
[9] = Cytotoxicity against human EB1 cells measured after 8 days; type: functional, cell-based; details: EB1, 192 h
[10] = target: D(2) dopamine receptor (Homo sapiens) (UniProt P14416); assay: Displacement of [3H]7-OH-DPAT from human recombinant dopamine D2S receptor at 10 uM after 60 mins by scintillation counting analysis relative to control
BJAB = assay: Cytotoxicity against human BJAB cells measured after 8 days; type: functional, cell-based; details: 192 h
NCI-H2347 = assay: Cytotoxicity against human NCI-H2347 cells measured after 8 days; type: functional, cell-based; details: NCI-H2347, 192 h
[11] = target: Sodium-dependent noradrenaline transporter (Homo sapiens) (UniProt P23975); assay: Displacement of [3H]nisoxetine from recombinant human norepinephrine transporter at 10 uM after 120 mins by scintillation counting analysis relative to control
SNU-C1 = assay: Cytotoxicity against human SNU-C1 cells measured after 8 days; type: functional, cell-based; details: SNU-C1, 192 h
SW1573 = assay: Cytotoxicity against human SW1573 cells measured after 8 days; type: functional, cell-based; details: SW1573, 192 h
DAN-G = assay: Cytotoxicity against human DAN-G cells measured after 8 days; type: functional, cell-based; details: 192 h
SW480 = assay: Cytotoxicity against human SW480 cells measured after 8 days; type: functional, cell-based; details: SW480, 192 h
[12] = target: Sodium-dependent serotonin transporter (Homo sapiens) (UniProt P31645); assay: Displacement of [3H]-imipramine from recombinant human 5-HT transporter at 10 uM after 60 mins by scintillation counting relative to control
[13] = target: Muscarinic acetylcholine receptor M3 (Homo sapiens) (UniProt P20309); assay: Displacement of [3H]4-DAMP from human recombinant M3 receptor at 10 uM after 60 mins by scintillation counting analysis relative to control
ONS-76 = assay: Cytotoxicity against human ONS-76 cells measured after 8 days; type: functional, cell-based; details: ONS-76, 192 h
SW948 = assay: Cytotoxicity against human SW948 cells measured after 8 days; type: functional, cell-based; details: SW948, 192 h
HEL = assay: Cytotoxicity against human HEL cells measured after 8 days; type: functional, cell-based; details: 192 h
[14] = target: T1, Muscle, skeletal receptor tyrosine-protein kinase (Homo sapiens) (UniProt O15146); assay: Inhibition of MuSK (unknown origin) at 1 uM relative to control
T1 sequence (whole entry): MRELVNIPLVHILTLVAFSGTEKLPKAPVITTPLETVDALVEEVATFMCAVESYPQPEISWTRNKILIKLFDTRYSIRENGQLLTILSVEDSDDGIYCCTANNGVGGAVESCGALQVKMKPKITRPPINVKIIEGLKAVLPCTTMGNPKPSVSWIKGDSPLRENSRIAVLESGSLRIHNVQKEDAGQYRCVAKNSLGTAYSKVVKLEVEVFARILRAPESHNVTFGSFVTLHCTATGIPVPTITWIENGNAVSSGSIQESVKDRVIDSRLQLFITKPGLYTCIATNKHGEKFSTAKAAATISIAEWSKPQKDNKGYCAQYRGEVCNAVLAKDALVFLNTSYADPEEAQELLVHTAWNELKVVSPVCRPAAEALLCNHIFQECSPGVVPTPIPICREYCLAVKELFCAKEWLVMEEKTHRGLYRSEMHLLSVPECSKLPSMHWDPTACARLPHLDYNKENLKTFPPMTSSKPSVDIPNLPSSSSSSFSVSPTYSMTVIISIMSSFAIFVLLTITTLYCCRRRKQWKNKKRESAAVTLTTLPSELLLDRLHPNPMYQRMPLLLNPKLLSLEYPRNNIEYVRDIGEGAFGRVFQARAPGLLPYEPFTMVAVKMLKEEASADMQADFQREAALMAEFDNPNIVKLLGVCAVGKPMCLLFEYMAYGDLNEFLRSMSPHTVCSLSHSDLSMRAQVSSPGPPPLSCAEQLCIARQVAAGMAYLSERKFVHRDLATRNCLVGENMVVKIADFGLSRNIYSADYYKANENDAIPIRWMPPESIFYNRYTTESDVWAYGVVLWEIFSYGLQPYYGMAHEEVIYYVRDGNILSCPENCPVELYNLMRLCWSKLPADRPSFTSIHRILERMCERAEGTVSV

HCC38 = assay: Cytotoxicity against human HCC38 cells measured after 8 days; type: functional, cell-based; details: HCC38, 192 h
HCT-116 = assay: Cytotoxicity against human HCT-116 cells measured after 8 days; type: functional, cell-based; details: HCT-116, 192 h
[15] = target: Mitogen-activated protein kinase kinase kinase kinase 4 (Homo sapiens) (UniProt O95819); assay: Inhibition of MAP4K4 (unknown origin) at 1 uM relative to control
[16] = Cytotoxicity against human KMS-27 cells measured after 8 days; type: functional, cell-based; details: KMS-27, 192 h
[17] = target: Mitogen-activated protein kinase 14 (Homo sapiens) (UniProt Q16539); assay: Inhibition of p38alpha (unknown origin) at 1 uM relative to control
[18] = Cytotoxicity against human RERF-LC-OK cells measured after 8 days; type: functional, cell-based; details: 192 h

Chain of Bromodomain-containing protein 2 (P25440 whole entry, the tested form may be a part, canonical isoform): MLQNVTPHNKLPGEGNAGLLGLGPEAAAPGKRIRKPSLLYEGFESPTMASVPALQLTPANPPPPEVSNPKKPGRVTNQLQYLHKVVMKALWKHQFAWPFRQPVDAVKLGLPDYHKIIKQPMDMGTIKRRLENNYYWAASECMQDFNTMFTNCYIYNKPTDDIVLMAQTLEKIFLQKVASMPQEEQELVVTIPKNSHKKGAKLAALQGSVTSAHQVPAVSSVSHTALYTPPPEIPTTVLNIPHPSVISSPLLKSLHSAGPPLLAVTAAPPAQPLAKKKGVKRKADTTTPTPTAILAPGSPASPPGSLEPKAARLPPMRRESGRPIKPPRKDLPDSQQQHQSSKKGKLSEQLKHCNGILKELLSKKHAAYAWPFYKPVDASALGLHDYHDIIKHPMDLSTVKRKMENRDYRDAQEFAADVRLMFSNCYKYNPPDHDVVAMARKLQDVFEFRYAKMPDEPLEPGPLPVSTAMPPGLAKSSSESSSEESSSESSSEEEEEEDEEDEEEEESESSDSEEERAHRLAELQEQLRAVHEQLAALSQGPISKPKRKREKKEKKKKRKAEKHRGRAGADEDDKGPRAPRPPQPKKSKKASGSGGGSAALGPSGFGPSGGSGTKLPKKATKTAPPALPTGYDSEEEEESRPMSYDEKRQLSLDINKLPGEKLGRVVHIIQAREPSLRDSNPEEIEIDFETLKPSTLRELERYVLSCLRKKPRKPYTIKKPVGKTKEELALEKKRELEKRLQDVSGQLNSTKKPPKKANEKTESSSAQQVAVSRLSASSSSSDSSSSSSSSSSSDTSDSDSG
Chain of Muscarinic acetylcholine receptor M3 (Homo sapiens) (P20309 whole entry, looked up): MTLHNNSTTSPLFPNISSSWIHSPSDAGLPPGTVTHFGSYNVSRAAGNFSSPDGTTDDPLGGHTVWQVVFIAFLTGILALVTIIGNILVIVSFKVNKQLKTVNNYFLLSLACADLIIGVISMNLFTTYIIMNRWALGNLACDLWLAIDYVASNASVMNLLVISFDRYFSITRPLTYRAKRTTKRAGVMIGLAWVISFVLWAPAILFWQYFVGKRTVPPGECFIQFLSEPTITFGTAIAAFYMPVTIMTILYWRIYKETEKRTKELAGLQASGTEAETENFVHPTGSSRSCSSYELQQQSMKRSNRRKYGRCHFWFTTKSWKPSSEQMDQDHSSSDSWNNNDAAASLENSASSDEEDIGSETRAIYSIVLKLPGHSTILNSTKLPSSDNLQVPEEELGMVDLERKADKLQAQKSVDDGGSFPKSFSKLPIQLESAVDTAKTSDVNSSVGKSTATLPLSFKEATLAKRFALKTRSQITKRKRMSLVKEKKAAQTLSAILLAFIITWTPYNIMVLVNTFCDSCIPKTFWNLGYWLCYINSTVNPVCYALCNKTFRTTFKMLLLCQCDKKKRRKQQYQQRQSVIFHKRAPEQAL
Chain of Mitogen-activated protein kinase 14 (Homo sapiens) (Q16539 whole entry): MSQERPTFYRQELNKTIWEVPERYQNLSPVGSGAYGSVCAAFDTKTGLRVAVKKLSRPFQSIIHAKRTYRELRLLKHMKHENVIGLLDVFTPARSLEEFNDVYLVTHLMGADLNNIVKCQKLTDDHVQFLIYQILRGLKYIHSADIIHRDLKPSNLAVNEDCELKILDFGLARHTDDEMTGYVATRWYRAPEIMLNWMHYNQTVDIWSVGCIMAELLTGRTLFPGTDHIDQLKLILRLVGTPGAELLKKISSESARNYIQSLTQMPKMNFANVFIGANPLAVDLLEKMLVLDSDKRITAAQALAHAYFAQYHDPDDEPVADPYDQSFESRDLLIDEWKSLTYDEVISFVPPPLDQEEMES
Chain of D(2) dopamine receptor (Homo sapiens) (P14416 whole entry): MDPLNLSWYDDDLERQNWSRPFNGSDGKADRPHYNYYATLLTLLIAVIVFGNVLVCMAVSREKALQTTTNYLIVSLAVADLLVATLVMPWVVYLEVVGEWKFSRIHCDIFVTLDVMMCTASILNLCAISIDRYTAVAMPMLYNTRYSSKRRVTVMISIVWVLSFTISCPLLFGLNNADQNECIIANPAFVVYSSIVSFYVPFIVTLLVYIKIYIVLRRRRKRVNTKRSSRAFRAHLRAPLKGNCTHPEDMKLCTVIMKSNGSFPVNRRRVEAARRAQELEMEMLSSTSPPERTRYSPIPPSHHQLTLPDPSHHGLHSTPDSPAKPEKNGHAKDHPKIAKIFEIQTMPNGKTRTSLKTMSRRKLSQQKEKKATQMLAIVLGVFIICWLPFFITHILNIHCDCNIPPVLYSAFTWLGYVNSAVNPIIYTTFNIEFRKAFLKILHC
Chain of Serine/threonine-protein kinase pim-1 (Homo sapiens) (P11309 whole entry, looked up): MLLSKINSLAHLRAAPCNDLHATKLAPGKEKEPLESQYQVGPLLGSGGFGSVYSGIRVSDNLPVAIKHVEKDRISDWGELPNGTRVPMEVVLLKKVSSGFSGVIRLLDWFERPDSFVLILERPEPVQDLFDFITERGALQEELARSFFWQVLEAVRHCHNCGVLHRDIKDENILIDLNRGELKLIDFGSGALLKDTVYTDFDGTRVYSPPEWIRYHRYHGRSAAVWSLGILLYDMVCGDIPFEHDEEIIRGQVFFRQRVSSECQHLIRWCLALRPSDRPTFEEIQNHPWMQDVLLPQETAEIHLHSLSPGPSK
Chain of Mitogen-activated protein kinase kinase kinase kinase 4 (Homo sapiens) (O95819 2-1239 limits assumed): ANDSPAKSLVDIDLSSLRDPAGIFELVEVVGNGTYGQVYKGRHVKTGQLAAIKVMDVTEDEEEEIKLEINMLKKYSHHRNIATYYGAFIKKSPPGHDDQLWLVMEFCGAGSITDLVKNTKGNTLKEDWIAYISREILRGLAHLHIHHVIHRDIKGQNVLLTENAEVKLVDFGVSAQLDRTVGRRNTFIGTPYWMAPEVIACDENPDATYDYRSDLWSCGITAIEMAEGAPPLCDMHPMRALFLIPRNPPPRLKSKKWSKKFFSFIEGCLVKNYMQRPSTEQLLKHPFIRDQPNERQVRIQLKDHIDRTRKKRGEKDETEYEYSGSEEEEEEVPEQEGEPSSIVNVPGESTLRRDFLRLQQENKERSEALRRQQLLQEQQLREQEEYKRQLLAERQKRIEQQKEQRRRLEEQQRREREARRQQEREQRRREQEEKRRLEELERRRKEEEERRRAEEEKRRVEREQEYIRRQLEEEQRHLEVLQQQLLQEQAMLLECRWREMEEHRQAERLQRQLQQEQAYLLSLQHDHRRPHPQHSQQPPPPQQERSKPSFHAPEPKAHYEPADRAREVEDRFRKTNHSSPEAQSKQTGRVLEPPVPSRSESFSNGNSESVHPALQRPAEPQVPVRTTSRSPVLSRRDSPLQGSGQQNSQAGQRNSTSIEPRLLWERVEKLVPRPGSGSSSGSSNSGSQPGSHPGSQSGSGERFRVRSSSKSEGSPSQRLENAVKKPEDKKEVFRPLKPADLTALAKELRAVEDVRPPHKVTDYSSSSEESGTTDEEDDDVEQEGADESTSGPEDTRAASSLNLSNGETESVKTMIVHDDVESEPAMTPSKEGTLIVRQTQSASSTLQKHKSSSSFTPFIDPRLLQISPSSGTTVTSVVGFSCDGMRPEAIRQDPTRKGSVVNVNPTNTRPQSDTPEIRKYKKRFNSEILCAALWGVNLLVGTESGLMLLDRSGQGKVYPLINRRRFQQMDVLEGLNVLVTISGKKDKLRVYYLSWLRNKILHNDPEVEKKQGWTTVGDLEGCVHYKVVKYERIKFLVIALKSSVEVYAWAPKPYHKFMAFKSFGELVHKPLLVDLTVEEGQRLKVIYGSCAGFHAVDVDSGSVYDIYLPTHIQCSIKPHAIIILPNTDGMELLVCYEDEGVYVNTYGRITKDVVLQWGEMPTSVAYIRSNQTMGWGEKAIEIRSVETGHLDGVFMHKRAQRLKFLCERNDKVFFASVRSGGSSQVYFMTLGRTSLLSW
Chain of Sodium-dependent noradrenaline transporter (Homo sapiens) (P23975 whole entry): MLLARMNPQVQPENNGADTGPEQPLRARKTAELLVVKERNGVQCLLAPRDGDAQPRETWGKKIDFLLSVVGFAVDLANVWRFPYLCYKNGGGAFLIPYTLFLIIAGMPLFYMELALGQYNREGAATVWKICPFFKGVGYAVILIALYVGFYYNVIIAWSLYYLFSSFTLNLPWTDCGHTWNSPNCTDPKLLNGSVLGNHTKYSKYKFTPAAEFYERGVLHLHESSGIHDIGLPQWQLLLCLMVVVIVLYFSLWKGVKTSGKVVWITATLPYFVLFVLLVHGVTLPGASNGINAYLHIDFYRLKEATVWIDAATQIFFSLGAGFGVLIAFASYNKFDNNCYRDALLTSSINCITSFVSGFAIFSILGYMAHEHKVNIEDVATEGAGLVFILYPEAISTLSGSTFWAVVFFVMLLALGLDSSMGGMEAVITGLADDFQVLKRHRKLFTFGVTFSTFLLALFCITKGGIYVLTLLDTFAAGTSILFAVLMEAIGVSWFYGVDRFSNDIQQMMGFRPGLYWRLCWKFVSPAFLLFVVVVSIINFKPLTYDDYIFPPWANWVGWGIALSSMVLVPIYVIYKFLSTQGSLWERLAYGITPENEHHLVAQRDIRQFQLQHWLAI
Chain of Sodium-dependent serotonin transporter (Homo sapiens) (P31645 whole entry, looked up): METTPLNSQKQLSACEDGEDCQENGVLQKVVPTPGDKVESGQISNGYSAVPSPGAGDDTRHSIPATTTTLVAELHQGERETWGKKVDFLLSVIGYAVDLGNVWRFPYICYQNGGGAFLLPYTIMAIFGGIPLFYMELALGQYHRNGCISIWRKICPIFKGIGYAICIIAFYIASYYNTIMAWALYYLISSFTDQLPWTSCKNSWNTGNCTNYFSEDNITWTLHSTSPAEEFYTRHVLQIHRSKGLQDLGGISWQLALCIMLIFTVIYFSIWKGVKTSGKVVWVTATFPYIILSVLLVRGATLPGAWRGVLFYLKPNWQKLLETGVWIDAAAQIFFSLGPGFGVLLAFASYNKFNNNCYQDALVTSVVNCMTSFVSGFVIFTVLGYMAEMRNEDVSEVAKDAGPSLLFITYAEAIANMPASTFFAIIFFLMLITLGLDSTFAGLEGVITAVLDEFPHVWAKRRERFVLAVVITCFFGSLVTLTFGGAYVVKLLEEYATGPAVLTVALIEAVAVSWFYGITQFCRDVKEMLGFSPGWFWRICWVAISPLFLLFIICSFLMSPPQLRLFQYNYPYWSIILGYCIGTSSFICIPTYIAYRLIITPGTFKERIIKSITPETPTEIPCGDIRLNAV

| SMILES | IC50 [1] [µM] | IC50 [2] [µM] | IC50 (MFM-223) [µM] | IC50 [3] [µM] | IC50 (NCI-H647) [µM] | IC50 [4] [µM] | IC50 (SK-MEL-28) [µM] | inhibition at 2 h, 10 µM [5] [%] | IC50 (MHH-PREB-1) [µM] | IC50 [6] [µM] | Kd [7] [µM] | IC50 (MC116) [µM] | IC50 (NCI-H441) [µM] | inhibition [8] [%] | IC50 [9] [µM] | Activity [10] [%] | IC50 (BJAB) [µM] | IC50 (NCI-H2347) [µM] | Activity [11] [%] | IC50 (SNU-C1) [µM] | also measured |
| --- | --- | --- | --- | --- | --- | --- | --- | --- | --- | --- | --- | --- | --- | --- | --- | --- | --- | --- | --- | --- | --- |
| C/C=C/Cn1cc(-c2ccc(C(C)(C)O)cc2OC)c2cc[nH]c2c1=O | 20 | 15 | 11.6 | 20 | 20 | 20 | 20 | -3 | 20 | > 20 | 3.3 | 4.97 | 20 | 0.5 | 20 | 6 | 20 | 20 | -6 | 20 | IC50 (SW1573): 20 µM; IC50 (DAN-G): 20 µM; IC50 (SW480): 20 µM; Activity [12]: 3%; Activity [13]: 6%; IC50 (ONS-76): 20 µM; IC50 (SW948): 20 µM; IC50 (HEL): 14.8 µM; inhibition [14]: 1.5%; IC50 (HCC38): 20 µM; IC50 (HCT-116): 20 µM; inhibition [15]: 10.5%; IC50 [16]: 20 µM; inhibition [17]: 7%; IC50 [18]: 20 µM |
| C/C=C/Cn1cc(-c2ccc(C(=O)N3CCOCC3)cc2)c2cc[nH]c2c1=O | 20 | 20 | 20 | 20 | 20 | 20 | 20 | 7 | 20 | 1.5 | 4.3 | 10.2 | 20 | -3.4 | 20 | -3 | 16.5 | 20 | -3 | 20 | IC50 (SW1573): 20 µM; IC50 (DAN-G): 20 µM; IC50 (SW480): 20 µM; Activity [12]: 3%; Activity [13]: -13%; IC50 (ONS-76): 20 µM; IC50 (SW948): 20 µM; IC50 (HEL): 18 µM; inhibition [14]: -2.4%; IC50 (HCC38): 20 µM; IC50 (HCT-116): 20 µM; inhibition [15]: 4.8%; IC50 [16]: 20 µM; inhibition [17]: 0.9%; IC50 [18]: 20 µM |
| C/C=C/Cn1cc(-c2cc(OC)c(C(C)(C)O)cc2OC)c2cc(C)[nH]c2c1=O | – | – | – | – | – | – | – | – | – | > 20 | > 10 | – | – | – | – | – | – | – | – | – | – |
| C/C=C/Cn1cc(-c2cc(OC)c(C(=O)N3CCOCC3)cc2OC)c2cc(C)[nH]c2c1=O | 2 | 2 | 1.46 | 2 | 2 | 2 | 2 | 3 | 2 | > 20 | > 10 | 2 | 2 | 2 | 2 | 13 | 2 | 2 | 0 | 2 | IC50 (SW1573): 2 µM; IC50 (DAN-G): 2 µM; IC50 (SW480): 2 µM; Activity [12]: 4%; Activity [13]: 3%; IC50 (ONS-76): 2 µM; IC50 (SW948): 2 µM; IC50 (HEL): 2 µM; inhibition [14]: 3%; IC50 (HCC38): 2 µM; IC50 (HCT-116): 2 µM; inhibition [15]: 0%; IC50 [16]: 2 µM; inhibition [17]: 3%; IC50 [18]: 2 µM |
